The numbers were not newly measured in patent US7413690B1, “Process and apparatus for producing spherical pellets using molten solid matrices” (The University of Mississippi, priority 2003, dated 2008), which cites them from elsewhere.

As for `Cn1c(=O)c2[nH]cnc2n(C)c1=O` [theophylline], the “water solubility (in words)” value is “water soluble”. As for `C[C@@H]1C[C@H]2[C@@H]3CCC4=CC(=O)C=C[C@]4(C)[C@@]3(F)[C@@H](O)C[C@]2(C)[C@@]1(O)C(=O)CO` [Dexamethasone], the “water solubility (in words)” value is on record as “water insoluble”.
